Measured values published in patent US7041812B2, “Labeled nucleoside polyphosphates” (Amersham Biosciences Corp, priority 2001, dated 2006).

Tests used:
[1] = molecular target: T1, MMLV reverse transcriptase (Moloney murine leukemia virus, UniProt P03355); test: Rates of incorporation of dTPn-DDAO (n=3 or 4) by reverse transcriptase; format: biochemical; conditions: 1 μM nucleotide, 100 nM primer annealed to template, shrimp alkaline phosphatase, 23° C., FIG. 2
T1 construct: MMLV reverse transcriptase
Protocol: (§1) Reactions were assembled at room temperature (23° C.) using the deoxynucleotides of Example (1–5). Reactions contained primer template combinations having a single oligonucleotide primer (represented by SEQ ID NO: 1) annealed to an oligonucleotide template corresponding to SEQ ID NO: 2.
(§2) Reaction conditions: A 70 μl reaction containing 50 mM Tris, pH 8.0, 5% glycerol, 5 mM MgCl2, 0.01% tween-20, 0.25 units shrimp alkaline phosphatase, 100 nM primer annealed to template, and 1 μM ddTPn-DDAO was assembled in a quartz fluorescence ultra-microcuvet in a LS-55 Luminescence Spectrometer (Perkin Elmer), operated in time drive mode. Excitation and emission wavelengths are 620 nm and 655 nm respectively. Slit widths were […] for excitation slits, 15 nm for emission slits. The reaction was initiated by the addition of 0.35 μl (11 units) of a cloned DNA polymerase I (genetically engineered to eliminate 3′-5′ exonuclease activity, 5′-3′ exonuclease activity and discrimination against dideoxynucleotides) or MMLV reverse transcriptase, and 0.25 mM MnCl2.

[2] = system: cloned DNA polymerase I (genetically engineered to eliminate 3′-5′ exonuclease activity, 5′-3′ exonuclease activity and discrimination against …); test: Rates of incorporation of dTPn-DDAO (n=3 or 4) by DNA polymerase; format: biochemical; conditions: 1 μM nucleotide, 100 nM primer annealed to template, shrimp alkaline phosphatase, 23° C., FIG. 2
Protocol: as §1, §2

Cc1cn([C@H]2CC(O)[C@@H](COP(=O)(O)OP(=O)(O)OP(=O)(O)OP(=O)(O)Oc3ccc4c(c3)C(C)(C)C3=C(Cl)C(=O)C(Cl)=CC3=N4)O2)c(=O)[nH]c1=O (some centres unmarked) [dT4P-DDAO, δ-9H(1,3-dichloro-9,9-dimethylacridin-2-one-7-yl)-deoxythymidine-5′-tetraphosphate]
rate of incorporation [1]: significantly higher than that of dT3P-DDAO
rate of incorporation [2]: significantly higher than that of dT3P-DDAO
